Test results taken from paper PMC7006651, “Effect of 6-Benzoyl-benzothiazol-2-one scaffold on the pharmacological profile of α-alkoxyphenylpropionic acid derived PPAR agonists” (Journal of Enzyme Inhibition and Medicinal Chemistry, 2020).
Where two headings read alike, the source gives them in different places.

How the values were obtained:
[1] = target: T1, human PPARγ (Homo sapiens, UniProt P37231); test: Membrane-bound PPARγ binding assay ([3H]rosiglitazone competition, filtration); conditions: competition with [3H]rosiglitazone (4 nM), 180 min at 4 °C; read-out: Ki (nM), hPPARγ binding affinity
T1 sequence (P37231 235-505 limits assumed): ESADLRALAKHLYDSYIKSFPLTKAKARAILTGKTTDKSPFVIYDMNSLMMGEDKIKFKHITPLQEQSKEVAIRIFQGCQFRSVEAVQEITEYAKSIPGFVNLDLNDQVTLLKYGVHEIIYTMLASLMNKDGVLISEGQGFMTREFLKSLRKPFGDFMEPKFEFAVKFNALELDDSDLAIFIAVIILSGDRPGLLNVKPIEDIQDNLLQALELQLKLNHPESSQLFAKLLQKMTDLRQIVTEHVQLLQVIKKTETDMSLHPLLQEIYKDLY
Description: The membrane-associated PPARγ was used as the biological source as previously described. Binding buffer consisted of 10 mM Tris/HCl, pH 8.2, containing 50 mM KCl and 1 mM dithiothreitol. […] Radioactivity was measured in a TopCount apparatus (Packard).

[2] = system: ob/ob mice; test: In vivo ob/ob mice: glycaemia, triglyceridemia, insulinemia, body weight; conditions: oral, 4 days, synthesised compounds 8.4 µMkg^−1, references 3 mgkg^−1; for ΔBW (body weight variation between day 0 and day 4): expressed in % of rosiglitazone in the same study (= 100%), ob/ob mice; for Change (%) Gly (glycemia) / Change (%) Ins (insulin) / Change (%) TG (triglycerides): percent change versus control, ob/ob mice at day 4;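 on all read-outs here: male ob/ob mice aged 10–12 weeks, given the compound once daily by oral gavage as a 1% hydroxyethylcellulose suspension, 8–12 animals per group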
Description: The glucose- and triglyceride-lowering activities of the compounds prepared were then tested using 10–12-week-old male ob/ob mice. […] Mice had access to filtered (0.22 mm) tap water ad libitum and irradiated pelleted laboratory chow (transbreed, Special Diet Services, England) throughout the study. Compounds were prepared as a suspension in 1% hydroxyethylcellulose (HEC) for oral administration (10 mLkg^−1). The mice (n = 8–12 per group) were dosed by gavage daily between 15:00 and 17:00 for 4 days. Randomisation was performed based on glycaemia values. The body weight gain (DBW in grams) of the animals was determined by measuring the difference between body weight at the beginning and end of the study for each mouse. At day 5 between 9:00 and 11:00 the mice were weighed, and blood samples were collected into heparin-containing tubes by retro-orbital puncture (500 mL per mouse). […] Plasma samples were prepared by centrifugation (2000 g for 10 min), and stored at −20 °C. For triglycerides and insulin determination, the percent change in plasma level in the treated group was calculated relative to the mean plasma level in the vehicle-treated group. ANOVA, followed by Dunnett’s comparison test (one-tailed) was used to estimate significant differences between the plasma glycaemia, triglycerides, insulin, and DBW values between the control group and the individual compound-treated groups.
As a side effect index, body weight was also measured daily, and body weight variation was calculated as a percentage of the difference in body weight between days 4 and 0.

[3] = target: T2, human PPARα (Homo sapiens, UniProt Q07869); test: Gene reporter (transactivation) assay, Cos-7 cells transfected with pGal4-hPPARα; format: cell-based; conditions: for Emax: COS-7, 24 h, read-out: hPPAR gene reporter αGal4 (%); for Emax / hPPAR gene reporter αGal4 (%): Emax relative to maximum activation with WY14643 (10 µM) = 100%; for EC50: GAL4 chimeric hPPARα, read-out: hPPAR gene reporter αEC50; for EC50 / hPPAR gene reporter αGal4 (%): 24 h;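 on all read-outs here: luciferase signal from a Gal4-driven reporter normalised to cotransfected β-galactosidase activity, cells exposed to rising compound concentrations with DMSO vehicle as control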
T2 construct: expressed in transfected cells; host or cells: Cos-7
T2 sequence (Q07869 239-466 limits assumed): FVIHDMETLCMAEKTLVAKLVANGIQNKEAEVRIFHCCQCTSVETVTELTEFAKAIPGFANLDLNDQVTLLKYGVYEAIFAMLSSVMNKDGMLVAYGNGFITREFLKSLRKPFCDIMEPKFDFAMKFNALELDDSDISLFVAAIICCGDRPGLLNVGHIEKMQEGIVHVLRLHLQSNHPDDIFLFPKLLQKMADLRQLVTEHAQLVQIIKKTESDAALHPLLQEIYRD
Description: (§1) Cos-7 cells were transiently transfected with luciferase reporter plasmid (pG5-TK-pGL3) in the presence of pGal4-hPPARα or pGal4-hPPARγ (these vectors express chimeric proteins containing the Gal4 DNA-binding domain fused to the human PPARα or PPARγ ligand binding domain coding sequence) expression vector. […] Cells were transfected in OptiMEM without FCS for 3 h at 37°, using polyethylenimine (PEI), with reporter and expression plasmids, as stated in figure’s legend. The plasmid pBluescript (Stratagene, La Jolla, CA) was used as carrier DNA to set the final amount of DNA to 5.5 µg/dish. The pCMV- ß-galactosidase expression plasmid was cotransfected as a control for transfection efficiency. […] After 16 h, cells were trypsinised and seeded in 96-well plates at the density of 2 × 10^4 cells/well and incubated for 6 h in 10% FCS containing DMEM. Cells were then incubated for 24 h in DMEM containing 0.2% FCS and increasing concentrations of the compound tested or vehicle (DMSO). At the end of the experiment, cells were washed once with ice-cold PBS and the luciferase and the β–galactosidase assays were performed as described previously[20]. Cells were incubated 24 h in the presence of indicated concentrations of compound. Luciferase activity was measured and normalised to internal control β-galactosidase activity. […] EC50 were estimated using Prism software (GraphPad). All transfection experiments were performed at least three times.

[4] = target: T3, human PPARγ (Homo sapiens, UniProt P37231); test: Gene reporter (transactivation) assay, Cos-7 cells transfected with pGal4-hPPARγ; format: cell-based; conditions: for Emax: COS-7, 24 h, read-out: hPPAR gene reporter γGal4 (%); for EC50: GAL4 chimeric hPPARγ, read-out: hPPAR gene reporter γEC50;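 on all read-outs here: luciferase reporter (pG5-TK) activity normalised to cotransfected β-galactosidase, cells exposed to increasing compound concentrations in DMEM with 0.2% FCS, DMSO vehicle as control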
T3 construct: expressed in transfected cells; host or cells: Cos-7
T3 sequence (P37231 238-503 limits assumed): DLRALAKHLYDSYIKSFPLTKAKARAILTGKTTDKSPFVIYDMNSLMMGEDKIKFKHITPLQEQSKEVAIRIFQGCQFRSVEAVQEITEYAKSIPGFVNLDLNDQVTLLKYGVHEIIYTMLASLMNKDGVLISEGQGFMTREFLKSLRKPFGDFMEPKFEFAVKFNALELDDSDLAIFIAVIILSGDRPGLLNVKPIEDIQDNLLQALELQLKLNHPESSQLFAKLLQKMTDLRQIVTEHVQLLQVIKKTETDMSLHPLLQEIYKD
Description: as §1

[5] = Emax relative to maximum activation with rosiglitazone (1 μM) = 100%, Cos-7 cells, 24 h

SMILES: CCOC(Cc1ccc(OCCn2c(=O)sc3cc(/C(=N/OC)c4ccccc4)ccc32)cc1)C(=O)O (stereo not drawn) [Compound 40a, 3-{4-[2–(6-[(E)-methoxyimino-phenyl-methyl]-2-oxo-benzothiazol-3-yl)-ethoxy]-phenyl}-2-ethoxypropionic acid]
- Ki [1]: 4 nM
- melting point: 151 to 152 °C
- ΔBW (body weight variation between day 0 and day 4) [2]: 188%
- Change (%) Gly (glycemia) [2]: −58%
- Change (%) Ins (insulin) [2]: −76%
- Change (%) TG (triglycerides) [2]: −83%
- Emax [3]: 159%
- EC50 [3]: 129 nM
- Emax [4, 5]: 87%
- EC50 ([4]; Cos-7 cells, 24 h): 2 nM

SMILES: CCOC(Cc1ccc(OCCN2C(=O)CSc3cc(C(=O)c4ccccc4)ccc32)cc1)C(=O)O (stereo not drawn) [Compound 34, 3-{4-[2–(7-benzoyl-3-oxo-benzo[1, 4]thiazin-4-yl)-ethoxy]-phenyl}-2-ethoxypropionic acid]
- Ki [1]: 4 nM
- melting point: 58 to 60 °C
- Emax [3]: 116%
- EC50 [3]: 2050 nM
- Emax [4, 5]: 97%
- EC50 ([4]; Cos-7 cells, 24 h): 37 nM

SMILES: Cc1cccc(Nc2cc(Cl)nc(SCC(=O)O)n2)c1C [WY14643, reference compound]
- hPPAR gene reporter αGal4 (%) [3]: 100%

SMILES: COc1ccc(OC(=O)N(CC(=O)O)Cc2ccc(OCCc3nc(-c4ccccc4)oc3C)cc2)cc1 [mura, Muraglitazar, reference compound]
- ΔBW (body weight variation between day 0 and day 4) [2]: 206%
- Change (%) Gly (glycemia) [2]: −46%
- Change (%) Ins (insulin) [2]: −46%
- Change (%) TG (triglycerides) [2]: −34%
- Emax [3]: 84%
- EC50 [3]: 595 nM
- Emax [4]: 128%

SMILES: CON=C(c1ccccc1)c1ccc2c(c1)sc(=O)n2CCOc1ccc(C[C@H](OCC(F)(F)F)C(=O)O)cc1 [Compound 44b, (S)-3-{4-[2–(6-[(E)-methoxyimino-phenyl-methyl]-2-oxo-benzothiazol-3-yl)-ethoxy]-phenyl}-2–(2,2,2-trifluoro)ethoxypropionic acid]
- Ki [1]: 3 nM
- ΔBW (body weight variation between day 0 and day 4) [2]: −17%
- Change (%) Gly (glycemia) [2]: −36%
- Change (%) Ins (insulin) [2]: −89%
- Change (%) TG (triglycerides) [2]: −69%
- hPPAR gene reporter αGal4 (%) [3]: 59%
- EC50 [3]: 525 nM
- hPPAR gene reporter γGal4 (%) [4, 5]: 150%
- EC50 ([4]; Cos-7 cells, 24 h): 0.9 nM

SMILES: O=C(O)C(Cc1ccc(OCCn2c(=O)sc3cc(C(=NO)c4ccccc4)ccc32)cc1)OCC(F)(F)F (mixture of isomers) [Compound 39b, 3-{4-[2–(6-[(Z/E)-hydroxyimino-phenyl-methyl]-2-oxo-benzothiazol-3-yl)-ethoxy]-phenyl}-2–(2,2,2-trifluoro)ethoxypropionic acid]
- Ki [1]: 165 nM
- melting point: 55 to 56 °C
- ΔBW (body weight variation between day 0 and day 4) [2]: 75%
- Change (%) Gly (glycemia) [2]: −18%
- Change (%) Ins (insulin) [2]: 10%
- Change (%) TG (triglycerides) [2]: −30%
- Emax [3]: 29%
- Emax [4, 5]: 44%
- EC50 ([4]; Cos-7 cells, 24 h): 10 nM

SMILES: CON=C(c1ccccc1)c1ccc2c(c1)sc(=O)n2CCOc1ccc(C[C@@H](OCC(F)(F)F)C(=O)O)cc1 [Compound 46b, (R)-3-{4-[2–(6-[(E)-methoxyimino-phenyl-methyl]-2-oxo-benzothiazol-3-yl)-ethoxy]-phenyl}-2–(2,2,2-trifluoro)ethoxypropionic acid]
- Ki [1]: 33 nM
- hPPAR gene reporter αGal4 (%) [3]: 117%
- EC50 [3]: 1660 nM
- hPPAR gene reporter γGal4 (%) [4, 5]: 116%
- EC50 ([4]; Cos-7 cells, 24 h): 9 nM

SMILES: CCOC(Cc1ccc(OCCn2c(=O)sc3cc(/C(=N/O)c4ccccc4)ccc32)cc1)C(=O)O (stereo not drawn) [Compound 39a, 3-{4-[2–(6-[(E)-hydroxyimino-phenyl-methyl]-2-oxo-benzothiazol-3-yl)-ethoxy]-phenyl}-2-ethoxypropionic acid]
- Ki [1]: 2 nM
- melting point: 84 to 85 °C
- ΔBW (body weight variation between day 0 and day 4) [2]: −10%
- Change (%) Gly (glycemia) [2]: −49%
- Change (%) Ins (insulin) [2]: −34%
- Change (%) TG (triglycerides) [2]: −69%
- Emax [3]: 129%
- Emax [4, 5]: 91%
- EC50 ([4]; Cos-7 cells, 24 h): 24 nM

SMILES: CCOC(Cc1ccc(OCCN2C(=O)COc3cc(C(=O)c4ccccc4)ccc32)cc1)C(=O)O (stereo not drawn) [Compound 36, 3-{4-[2–(7-benzoyl-3-oxo-benzo[1, 4]oxazin-4-yl)-ethoxy]-phenyl}-2-ethoxypropionic acid]
- Ki [1]: 1 nM
- melting point: 36 to 38 °C
- Emax [3]: 80%
- Emax [4, 5]: > 100%
- EC50 ([4]; Cos-7 cells, 24 h): 80 nM

SMILES: CCOC(Cc1ccc(OCCN2C(=O)Cc3cc(C(=O)c4ccccc4)ccc32)cc1)C(=O)O (stereo not drawn) [Compound 37, 3-{4-[2–(5-benzoyl-2-oxo-2,3-dihydroindol-1-yl)ethoxy]phenyl}-2-ethoxypropionic acid]
- Ki [1]: 6.5 nM
- melting point: 68 to 70 °C
- Emax [3]: 100%
- Emax [4, 5]: ≤ 75%
- EC50 ([4]; Cos-7 cells, 24 h): 40 nM

SMILES: CCOC(Cc1ccc(OCCn2c(=O)sc3ccc(C(=O)c4ccccc4)cc32)cc1)C(=O)O (stereo not drawn) [Compound 31, 3-{4-[2–(5-benzoyl-2-oxo-benzothiazol-3-yl)-ethoxy]-phenyl}-2-ethoxypropionic acid]
- Ki [1]: 8 nM
- melting point: 49 to 51 °C
- Emax [3]: ≥ 80%
- EC50 [3]: 256 nM
- EC50 ([4]; Cos-7 cells, 24 h): 61 nM

SMILES: CCO[C@H](Cc1ccc(OCCn2c(=O)sc3cc(/C(=N/OC)c4ccccc4)ccc32)cc1)C(=O)O [Compound 46a, (R)-3-{4-[2–(6-[(E)-methoxyimino-phenyl-methyl]-2-oxo-benzothiazol-3-yl)-ethoxy]-phenyl}-2-ethoxypropionic acid]
- Ki [1]: 86 nM
- melting point: 151 to 152 °C
- Emax [3]: 124%
- EC50 [3]: 1480 nM
- Emax [4, 5]: 87%
- EC50 ([4]; Cos-7 cells, 24 h): 558 nM

SMILES: CCOC(Cc1ccc(OCCN2C(=O)COc3ccc(C(=O)c4ccccc4)cc32)cc1)C(=O)O (stereo not drawn) [Compound 35, 3-{4-[2–(6-benzoyl-3-oxo-benzo[1, 4]oxazin-4-yl)-ethoxy]-phenyl}-2-ethoxypropionic acid]
- Ki [1]: 3 nM
- melting point: 47 to 49 °C
- Emax [3]: 97%
- Emax [4, 5]: > 100%
- EC50 ([4]; Cos-7 cells, 24 h): 2 nM

SMILES: CN(CCOc1ccc(CC2SC(=O)NC2=O)cc1)c1ccccn1 (stereo not drawn) [rosi, Rosiglitazone, reference compound]
- ΔBW (body weight variation between day 0 and day 4) [2]: 100%
- Change (%) Gly (glycemia) [2]: −57%
- Change (%) Ins (insulin) [2]: −73%
- Change (%) TG (triglycerides) [2]: −46%

SMILES: CCOC(Cc1ccc(OCCN2C(=O)CSc3ccc(C(=O)c4ccccc4)cc32)cc1)C(=O)O (stereo not drawn) [Compound 33, 3-{4-[2–(6-benzoyl-3-oxo-benzo[1, 4]thiazin-4-yl)-ethoxy]-phenyl}-2-ethoxypropionic acid]
- Ki [1]: 220 nM
- melting point: 52 to 54 °C
- Emax [3]: ≤ 20%
- EC50 [3]: 10000 nM
- Emax [4, 5]: ≤ 70%
- EC50 ([4]; Cos-7 cells, 24 h): 219 nM

SMILES: CCOC(Cc1ccc(OCCN2C(=O)C(F)(F)c3cc(C(=O)c4ccccc4)ccc32)cc1)C(=O)O (stereo not drawn) [Compound 38, 3-{4-[2–(5-benzoyl-3,3-difluoro-2-oxo-2,3-dihydroindol-1-yl)ethoxy]phenyl}-2-ethoxy-propionic acid]
- Ki [1]: 4 nM
- Emax [3]: 89%
- Emax [4, 5]: ≤ 75%
- EC50 ([4]; Cos-7 cells, 24 h): 5 nM
